Laboratory results as given in US11911383B2, “Oral solution formulation” (Pfizer Inc., priority 2018, dated 2024).
≈ marks a conversion by molar mass, not a printed value. Like-named read-outs stand apart in the source and are kept apart here.

What was measured:
[1] = Solubility of palbociclib (free base) in various aqueous buffers, with total degradation by HPLC; assay type: physicochemical; conditions: for solubility at 28 h: aqueous buffer solution, 25 °C, thermodynamic from solid
Procedure: The solubility of palbociclib (free base) was assessed in various aqueous buffer solutions and mixtures thereof. The buffers were prepared at concentrations ranging from 0.01 M to 0.2 M and at pH values ranging from 2.0 to 8.4. Samples were prepared by weighing and transferring approximately 200 mg of palbociclib to 3-4 mL of the buffer. The solutions were vortexed and placed in a temperature cycle chamber for 8 hours at 25° C., followed by 12 hours at 40° C., then 8 hours at 25° C. The resulting solutions were then analyzed by HPLC to determine the solubility (mg/mL) of palbociclib in the buffer. […] NT=Not tested.

[2] = Effect of pH on the oral aqueous solution (degradation, precipitation); assay type: physicochemical; conditions: pH values above about 4.3
Description: In some embodiments, the oral aqueous solution has a pH of from about 3.0 to about 4.5. In some embodiments, the oral aqueous solution has a pH of from about 3.5 to about 4.3. In frequent embodiments, the oral aqueous solution has a pH of from about 3.6 to about 4.0. In some such embodiments, the oral aqueous solution has a pH of about 3.8.

[3] = Sample P: 0.032M Malic Acid, pH NT
[4] = Sample Q: 0.02M Malic Acid, pH NT
[5] = Sample R: 0.01M Malic Acid, pH NT
[6] = aqueous buffer systems of lactic acid and malic acid

Total Degradation ([1]; Sample A: 0.2M Citric Acid, pH 2.02, new HPLC peaks greater than 0.05%): 0.52%
Total Degradation ([1]; Sample B: 0.2M Malic Acid, pH 2.00): 0.20%
Total Degradation ([1]; Sample C: 0.2M DL Lactic Acid, pH 2.07): 0%
Total Degradation ([1]; Sample D: 0.2M Succinic acid, pH 2.42): 0.66%
Total Degradation ([1]; Sample E: 0.2M Sodium succinate, pH 8.38): 0%
Total Degradation ([1]; Sample F: 0.2M Sodium dihydrogen phosphate dihydrate, pH 2.01): 1.27%
Total Degradation ([1]; Sample G: 9.5 mL D + 0.5 mL E, pH 3.15): 0.29%
Total Degradation ([1]; Sample H: 9 mL D + 1 mL E, pH 3.45): 3.03%
Total Degradation ([1]; Sample I: 8 mL D + 2 mL E, pH 3.93): 3.43%
Total Degradation ([1]; Sample J: 5 mL D + 5 mL E, pH 4.62): 1.31%
Total Degradation ([1]; Sample K: 5 mL D + 10 mL E, pH 4.98): 1.08%
Total Degradation ([1]; Sample L: 5 mL D + 15 mL E, pH 5.25): 1.46%
Total Degradation ([1]; Sample M: 0.1M DL Lactic Acid, pH 2.31): 0.00%
Total Degradation ([1]; Sample N: 0.05M DL Lactic Acid, pH 2.46): 0.00%
Total Degradation ([1]; Sample O: 0.01M DL Lactic Acid, pH 2.83): 0.19%
Solubility [1, 3]: 530 µg/mL (≈ 1.18 mM)
Total Degradation [1, 3]: 1.66%
Solubility [1, 4]: 600 µg/mL (≈ 1.34 mM)
Total Degradation [1, 4]: 1.62%
Solubility [1, 5]: 600 µg/mL (≈ 1.34 mM)
Total Degradation [1, 5]: 1.63%
solubility at 28 h ([1]; pH 2, aqueous buffer, Sample B: 0.2M Malic Acid, pH 2.00, read-out: Solubility): 15700 µg/mL (≈ 35.1 mM)
solubility at 28 h ([1]; pH 2.01, aqueous buffer, Sample F: 0.2M Sodium dihydrogen phosphate dihydrate, pH 2.01, read-out: Solubility): 650 µg/mL (≈ 1.45 mM)
solubility at 28 h ([1]; pH 2.02, aqueous buffer, Sample A: 0.2M Citric Acid, pH 2.02, temperature cycle 25/40/25° C., read-out: Solubility): 4000 µg/mL (≈ 8.94 mM)
solubility at 28 h ([1]; pH 2.07, aqueous buffer, 0.2M DL lactic acid buffer, read-out: Amount dissolved with solution still clear (saturated solubility not yet reached)): > 45700 µg/mL
solubility at 28 h ([1]; pH 2.07, aqueous buffer, Sample C: 0.2M DL Lactic Acid, pH 2.07, read-out: Solubility): 45700 µg/mL (≈ 102 mM)
solubility at 28 h ([1]; pH 2.31, aqueous buffer, Sample M: 0.1M DL Lactic Acid, pH 2.31, read-out: Solubility): 36300 µg/mL (≈ 81.1 mM)
solubility at 28 h ([1]; pH 2.42, aqueous buffer, Sample D: 0.2M Succinic acid, pH 2.42, read-out: Solubility): 1100 µg/mL (≈ 2.46 mM)
solubility at 28 h ([1]; pH 2.46, aqueous buffer, Sample N: 0.05M DL Lactic Acid, pH 2.46, read-out: Solubility): 16200 µg/mL (≈ 36.2 mM)
solubility at 28 h ([1]; pH 2.83, aqueous buffer, Sample O: 0.01M DL Lactic Acid, pH 2.83, read-out: Solubility): 3800 µg/mL (≈ 8.49 mM)
solubility at 28 h ([1]; pH 3.15, aqueous buffer, Sample G: 9.5 mL D + 0.5 mL E (succinic acid/sodium succinate), pH 3.15, read-out: Solubility): 1700 µg/mL
solubility at 28 h ([1]; pH 3.45, aqueous buffer, Sample H: 9 mL D + 1 mL E, pH 3.45, read-out: Solubility): 340 µg/mL
solubility at 28 h ([1]; pH 3.93, aqueous buffer, Sample I: 8 mL D + 2 mL E, pH 3.93, read-out: Solubility): 67 µg/mL
solubility at 28 h ([1]; pH 4.62, aqueous buffer, Sample J: 5 mL D + 5 mL E, pH 4.62, read-out: Solubility): 68 µg/mL
solubility at 28 h ([1]; pH 4.98, aqueous buffer, Sample K: 5 mL D + 10 mL E, pH 4.98, read-out: Solubility): 55 µg/mL
solubility at 28 h ([1]; pH 5.25, aqueous buffer, Sample L: 5 mL D + 15 mL E, pH 5.25, read-out: Solubility): 91 µg/mL
solubility at 28 h ([1]; pH 8.38, aqueous buffer, Sample E: 0.2M Sodium succinate, pH 8.38, read-out: Solubility): 4 µg/mL (≈ 0.00894 mM)
Degradation (in words) [1, 6]: minimal degradation
Solubility (in words) [1, 6]: significantly enhanced solubility
Precipitation of the API [2]: Some precipitation
SMILES: CC(=O)c1c(C)c2cnc(Nc3ccc(N4CCNCC4)cn3)nc2n(C2CCCC2)c1=O [palbociclib, 6-acetyl-8-cyclopentyl-5-methyl-2-(5-piperazin-1-yl-pyridin-2-ylamino)-8H-pyrido[2,3-d]pyrimidin-7-one]
